# Data reported in patent publication US20040024005A1, “Methods and compositions for reducing the development of drug tolerance and/or physical dependence” (The Regents of the University of California, priority 2002, published 2004).
# What was measured:
# cAMP pathway = assay: CRE-luciferase reporter assay of cAMP superactivation in MOR-expressing HEK293 cells; settings: chronic 14 hours
# Experimental: CRE-luciferase reporter expression assays. Cells were grown to confluency in 24 well plates. […] For chronic treatment experiments cells were given drug for 14 hours, rinsed 3 times in drug-free media to initiate a withdrawal phase, then given 2 μM forskolin for the 4 hour withdrawal phase, and luciferase activity measured. […] For all treatment conditions, cells were rinsed once in PBS immediately prior to luciferase measurement. 100 μl Cell Culture Lysis Reagent (Promega) was added to each well, a 20 μl cell lysate aliquot was transferred to an opaque 96 well plate, 100 μl substrate added per well using a Lucy 2 luminometer (Anthos), and light measurements collected. Data were exported to Microsoft Excel for compilation, and GraphPad Prism 3.0 for graphical display, non-linear regression curve fitting, and subsequent statistical analyses.
# P<0.01, two-way ANOVA, Tukey's post test.
# wild type MOR = wild type MOR (Homo sapiens, UniProt P35372); settings: cited from earlier work
# [1] = Naloxone-precipitated withdrawal after i.c.v. treatment (jumping, shaking, chewing, weight loss); settings: naloxone 3 mg/kg i.p.; for withdrawal symptoms after naloxone (jumping, shaking, chewing, weight loss): i.c.v. twice daily for 5 days, morphine 50 nmoles, DAMGO 1.0 nmole; for withdrawal behaviours after naloxone: 20-min period
# Experimental: (§1) On day 7, rats were injected intraperitoneally with 3 mg/kg naloxone and placed, individually, in Plexiglass cylinders. The rats were monitored for jumping, shaking, and chewing, and the number of occurrences of each type of behavior over a 20-min period was recorded immediately following the naloxone injection. In addition, the rats were weighed before naloxone injection and after the 20 mins of monitoring indicated above.
# as §1, with “5, 30 mins following the second drug administration,” for “7,”, “following” for “after”, “20-min observation period” for “20 mins of monitoring”
# [2] = biological target: T1, MORs in the lamina II neurons of the spinal cord (Rattus norvegicus, UniProt P33535); assay: Immunohistochemical staining of MORs in lamina II spinal cord neurons after IT drug; type: in vivo
# T1 construct: from tissue; host or cells: spinal cord (lamina II, dorsal horn) of male Sprague-Dawley rats dosed intrathecally
# T1 sequence (P33535 whole entry): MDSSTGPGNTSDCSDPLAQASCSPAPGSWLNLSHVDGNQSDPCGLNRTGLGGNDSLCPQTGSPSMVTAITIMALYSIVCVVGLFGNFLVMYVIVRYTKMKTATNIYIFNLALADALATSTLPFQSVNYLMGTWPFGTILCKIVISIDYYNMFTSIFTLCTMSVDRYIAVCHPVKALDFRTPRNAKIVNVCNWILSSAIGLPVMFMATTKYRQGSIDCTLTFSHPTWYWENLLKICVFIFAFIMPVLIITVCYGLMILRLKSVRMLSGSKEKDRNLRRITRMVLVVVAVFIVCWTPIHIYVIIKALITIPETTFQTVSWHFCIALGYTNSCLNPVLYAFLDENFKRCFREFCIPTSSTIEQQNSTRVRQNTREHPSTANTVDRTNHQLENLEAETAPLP
# Experimental: Immunohistochemistry. The rats were anesthetized with intramuscular ketamine hydrochloride (80 mg/kg) and xylazine hydrochloride (12 mg/kg) and perfused with 4% paraformaldehyde in 0.1 M phosphate buffer immediately following the tail-flick test at day 7 following pump implantation. The segment of spinal cord proximal to the tip of the catheter was dissected out, post-fixed overnight in the same fixative and then transferred to a 30% sucrose buffer solution. […] The sections were then washed and mounted on slides. MOR distribution was examined with a Zeiss confocal microscope using a 60× oil immersion objective. For quantification, slides from at least two different rats for each condition were stained by one researcher and encoded and vesicles were counted blind by a second individual from the middle section of at least 8 cells per condition. Following compilation of vesicle counts, the code was broken.
# (§2) Rats (4-6 per group) were implanted with an intrathecal catheter through which either an acute injection of agonist could be given or chronic drug could be administered by an osmotic mini pump.
# A very low dose of DAMGO was chosen to avoid confusion due to DAMGO-induced endocytosis.
# To examine this possibility, we examined the distribution of the MORs in the spinal cord of the rats from the behavioral experiment.
# [3] = Radiant heat tail-flick antinociception, intrathecal (IT) catheter; type: in vivo, rat
# From the text: Animals. Male Sprague-Dawley rats (250-300 g, Simonsen Laboratories, Inc. Gilroy, Calif.) were housed individually in temperature-controlled rooms with a 12-hr light/dark cycle. Food and water were available ad libitum. All procedures used in this study were in agreement with the NIH Guide for the Care and Use of Laboratory Animals and were approved by the Animal Care and Use Committee at Gallo Center of the University of California, San Francisco.
# Preparation and implantation of intrathecal (IT) catheters. […] Two types of catheters were prepared depending on the regimen for test drug delivery. […] For catheter implantation, rats were anesthetized with isoflurane and placed on a stereotaxic device with the head flexed forward. The PE-10 catheter was inserted into the spinal subarachnoid space through an incision in the atlanto-occipital membrane and advanced caudally extending to the lumbar enlargement of the spinal cord. After implantation of IT catheters, rats were returned to their home cages and allowed 7 days to recover from surgery.
# Drug treatments. […] The test drug was delivered via either single injection or chronic infusion. […] DAMGO or saline was injected through one arm of the Y-shape catheter at 15 μl volume.
# Antinociception test. Rats were tested for antinociception using the radiant heat tail-flick procedure. The light intensity was adjusted to achieve base-line latencies of 1.5 to 2 seconds; a maximum latency of 6 seconds was set as the cut-off time to minimize damage to the tail. […] Antinociception was tested by tail-flick 30 min after the afternoon administration. The behavioral data of antinociception were compared and statistically analyzed by two-way analysis of variance followed by Bonferroni post-test, where P<0.05 was considered significant.
# as §2
# Rats were implanted with a Y-shaped intrathecal catheter. […] Either a sub-analgesic, sub-endocytic dose of DAMGO (0.01 nmoles in 15 μl) or an equal volume of saline was administered twice daily through the other arm of the catheter. […] Analgesia was measured by tail flick latency test once per day 30 minutes following the second injection.
# [4] = Tail-flick antinociception and tolerance, intracerebroventricular (i.c.v.) cannula; type: in vivo, rat
# From the text: Intracerebroventricular (i.c.v.) cannula implantation. Rats were anesthetized with halothane and placed in a stereotaxic head holder. The scalp was shaved and scrubbed with alcohol. A midline sagittal incision was made, and the skull was exposed. The bone suture junctions Bregma and midline (lambda) were identified, then the location for cannula placement was marked 1 mm posterior to Bregma and 1.5 mm lateral (left) of the midline. A hole was drilled through the skull at the marked location to receive the cannula. Then, three additional holes were drilled around the first hole: anterior, lateral and posterior to the first hole, respectively, and about 3-4 mm apart from the first hole. These three holes were drilled partway through the skull to accommodate three small screws used to secure the cannula. An L-shaped cannula was inserted through the first hole in the skull to the stereotaxically correct depth 3.6 mm below the surface of the skull. The skull surface was completely dried, and the cannula and the implantation site covered with dental cement. Once the surgical procedures were done, the rat was removed from the stereotaxic device and returned to its cage and allowed 5 to 7 days to recover from surgery.
# Implantation of osmotic mini-pump. After 5 to 7 days of recovery, a subcutaneous pocket in the midscapular area of the back of each rat, next to the implanted cannula (caudally), was created under light anesthesia with halothane to house the osmotic mini-pump. The subcutaneous pocket was created by first making a small incision, inserting a hemostat into the incision, and then opening and closing the hemostat to make a short subcutaneous tunnel. […] The wound was closed with sutures and the rat was returned to its cage.
# Rats were tested for analgesia using the tail-flick latency test twice during the study period. The tests were conducted 30 min after the morning dose on days 1 and 5. Maximum Possible Effect (MPE) was calculated using the following equation: (Post-drug latency—baseline latency)/(cut-off latency—baseline latency)×100%.
# [5] = biological target: T2, HA-B2AR (beta-2 adrenergic receptor) (Homo sapiens, UniProt P07550); assay: B2AR endocytosis in HEK 293 cells expressing FLAG-MOR and HA-B2AR; type: cell-based; settings: 5 μM each agonist, 30 minutes
# T2 construct: expressed in transfected cells
# T2 sequence (P07550 whole entry, species assumed): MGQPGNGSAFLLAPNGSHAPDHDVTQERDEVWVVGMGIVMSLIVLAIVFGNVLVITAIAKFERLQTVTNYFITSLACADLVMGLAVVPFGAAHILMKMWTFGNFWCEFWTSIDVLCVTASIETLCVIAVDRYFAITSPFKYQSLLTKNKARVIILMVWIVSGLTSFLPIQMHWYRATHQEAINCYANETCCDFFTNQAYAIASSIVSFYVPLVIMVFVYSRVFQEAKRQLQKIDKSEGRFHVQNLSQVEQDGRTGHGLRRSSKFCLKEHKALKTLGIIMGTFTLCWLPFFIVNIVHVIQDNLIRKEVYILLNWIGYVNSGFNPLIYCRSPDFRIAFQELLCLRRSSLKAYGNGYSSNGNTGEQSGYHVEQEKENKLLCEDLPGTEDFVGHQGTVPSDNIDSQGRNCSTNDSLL
# Experimental: Cell culture and immunocytochemistry. Human Embryonic Kidney (HEK) 293 cells (American Type Culture Collection) were grown in DMEM (Gibco BRL) supplemented with 10% Fetal Bovine Serum (Hyclone). Mu opioid receptor and CRE-Luciferase (Promega) constructs were stably transfected using calcium phosphate co-precipitation, with single colonies chosen and propagated in the presence of selection-containing media. For immunocytochemistry, cells were grown on poly-lysine coated coverslips and incubated with 3.5 μg/ml M1 anti-FLAG and/or 3.5 μg/ml HA-11 antibody (Covance) for 30 minutes. Cells were then treated with agonist as specified, fixed in 4% formaldehyde in PBS, permeabilized in 0.1% Triton X-100 in blotto, and stained. Cells stained for only one receptor type were stained with Texas red-conjugated Donkey anti-Mouse antibody (Jackson Immunoresearch). Cells that were stained for both FLAG and HA tagged receptors simultaneously were first incubated with rabbit anti-IgG2b antibodies (Zymed) followed by staining with Texas red Donkey anti Mouse antibody (Jackson Immunoresearch) and FITC-conjugated Goat anti Mouse IgG1, antibody (Boehringer). Images were acquired using a custom-configured inverted microscope (Prairie Systems, Madison, Wis.) with a Zeiss 63× oil objective, or a Zeiss confocal with a 60× oil objective. […]
# [6] = biological target: T3, FLAG-MOR (mu opioid receptor) (Mus musculus, UniProt P42866); assay: MOR endocytosis by antibody feeding and immunocytochemistry in HEK 293 cells; type: cell-based
# T3 construct: expressed in transfected cells
# T3 sequence (P42866 whole entry): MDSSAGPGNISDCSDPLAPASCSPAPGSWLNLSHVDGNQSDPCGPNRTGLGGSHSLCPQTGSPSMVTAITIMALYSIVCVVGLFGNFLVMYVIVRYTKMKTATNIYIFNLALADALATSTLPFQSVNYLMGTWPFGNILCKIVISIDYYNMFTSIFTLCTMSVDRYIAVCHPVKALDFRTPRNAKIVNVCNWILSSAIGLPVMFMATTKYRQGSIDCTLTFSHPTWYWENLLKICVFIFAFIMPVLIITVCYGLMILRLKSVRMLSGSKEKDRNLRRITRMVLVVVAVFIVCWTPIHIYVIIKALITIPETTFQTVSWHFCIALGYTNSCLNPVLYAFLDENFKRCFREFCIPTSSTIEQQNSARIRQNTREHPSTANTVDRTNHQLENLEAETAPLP
# Experimental: Cell culture and immunocytochemistry. Human Embryonic Kidney (HEK) 293 cells (American Type Culture Collection) were grown in DMEM (Gibco BRL) supplemented with 10% Fetal Bovine Serum (Hyclone). Mu opioid receptor and CRE-Luciferase (Promega) constructs were stably transfected using calcium phosphate co-precipitation, with single colonies chosen and propagated in the presence of selection-containing media. For immunocytochemistry, cells were grown on poly-lysine coated coverslips and incubated with 3.5 μg/ml M1 anti-FLAG and/or 3.5 μg/ml HA-11 antibody (Covance) for 30 minutes. Cells were then treated with agonist as specified, fixed in 4% formaldehyde in PBS, permeabilized in 0.1% Triton X-100 in blotto, and stained. Cells stained for only one receptor type were stained with Texas red-conjugated Donkey anti-Mouse antibody (Jackson Immunoresearch). Cells that were stained for both FLAG and HA tagged receptors simultaneously were first incubated with rabbit anti-IgG2b antibodies (Zymed) followed by staining with Texas red Donkey anti Mouse antibody (Jackson Immunoresearch) and FITC-conjugated Goat anti Mouse IgG1, antibody (Boehringer). Images were acquired using a custom-configured inverted microscope (Prairie Systems, Madison, Wis.) with a Zeiss 63× oil objective, or a Zeiss confocal with a 60× oil objective.
# We next assessed whether the heterodimerization of MOR and D MOR could affect the trafficking of the receptors using immunocytochemical methods. […] Control cell lines that expressed only one of the receptors, either FLAG-MOR or HA-D MOR, were treated analogously. All cells were then permeabilized and stained with fluorescently conjugated secondary antibodies. In this way, only receptors that were initially on the cell surface were detected.
# HEK 293 cells were generated that stably expressed both the FLAG-tagged MOR and an HA-tagged B2AR. The cells were incubated with antibodies to both epitope tags to label cell surface receptors, treated with various agonists or agonists combinations, then stained for both receptors. […] All treatments were for 30 minutes with 5 μM each agonist.
# MOR-G protein coupling = biological target: T4, MOR-G protein coupling (Rattus norvegicus, UniProt P33535); assay: [35S]-GTPγS binding autoradiography of brain sections (MOR-G protein coupling) after chronic treatment; type: in vivo; settings: chronic DAMGO treatment as printed; brainstem P<0.001, thalamus P<0.05
# T4 construct: from tissue; host or cells: brain sections of male Sprague-Dawley rats treated i.c.v
# T4 sequence (P33535 whole entry): as the sequence (P33535 whole entry) above
# Experimental: The binding assay was carried out as follows:
# Slides containing brain sections were pre-incubated in buffer (50 mM Tris, 3 mM MgCl2, 0.2 mM EGTA, 100 mM NaCl, pH 7.4) for 10 min at room temperature.
# The slides were then pre-incubated in the same buffer containing 2 mM GDP for 10 min at room temperature.
# The slides were incubated in the same buffer as in step 2, additionally containing 50 pM [^35S]GTPγS for 90 min at room temperature.
# The slides were then rinsed twice for 2-5 min in ice-cold buffer (the same buffer as in step 1) and dipped in cold distilled water.
# The slides were thoroughly dried overnight, placed in X-ray cassettes, and exposed to BioMax MS™ film with an intensifying screen for 72 hr.
# After exposure, the films were developed and scanned. The regional neuroanatomy of the rat was determined with the atlas of Paxinos and Watson, and brain areas in autoradiograms were quantitated using NIH Image software. Percent stimulation was calculated from optical densities (OD) according to the following equation:
# Percent stimulation=(stimulated OD−basal OD)/basal OD×100%.
# mu-opioid receptor = biological target: T5, mu-opioid receptor (Rattus norvegicus, UniProt P33535); assay: MOR distribution in brain by immunohistochemistry after acute and chronic i.c.v. treatment; type: in vivo; settings: i.c.v. acute or chronic (twice a day, 5 days); morphine 50 nmoles, DAMGO 1 nmole
# T5 construct: from tissue; host or cells: brain sections of male Sprague-Dawley rats treated i.c.v
# T5 sequence (P33535 whole entry): as above
# Experimental: For the acute treatment, animals were sacrificed 30 mins following the first injection. For the chronic treatment, drugs were given twice a day: morning and afternoon, in 5 μl volume for 5 days, and the animals were sacrificed 30 mins following the final injection. Rats were deeply anesthetized with halothane and perfused with 4% paraformaldehyde in 0.1 M phosphate buffer. The brains were dissected out and post-fixed overnight in the same fixative and then transferred to a 30% sucrose buffer. Coronal sections (30 um thick) were cut on cryostat at −18° C., preincubated in PBT solution (0.1 M phosphate buffer, 2% BSA, and 0.2% Triton X-100) for 30 min, blocked in 5% normal goat serum in PBT solution for another 30 min, and then incubated with a rabbit anti-mu opioid receptor antibody at 1:5000 and mouse and NeuN antibody (which recognizes the neuronal-specific protein NeuN) at 1:5000 overnight at 4° C. […] The sections were then washed and mounted onto slides. The mu-opioid receptors and NeuN were visualized using a Zeiss confocal microscope with a 60× oil immersion objective.
# [7] = acute IT injection, 30 min after, DAMGO 0.3 nmoles, morphine 30 nmoles, p<0.001
# [8] = HEK 293 cells expressing FLAG-MOR and HA-B2AR, 5 μM each agonist, 30 minutes
# [9] = chronic i.c.v. infusion at 25 or 75 nmoles/hr for 7 days
# wild type MOR, sequence (P35372 whole entry): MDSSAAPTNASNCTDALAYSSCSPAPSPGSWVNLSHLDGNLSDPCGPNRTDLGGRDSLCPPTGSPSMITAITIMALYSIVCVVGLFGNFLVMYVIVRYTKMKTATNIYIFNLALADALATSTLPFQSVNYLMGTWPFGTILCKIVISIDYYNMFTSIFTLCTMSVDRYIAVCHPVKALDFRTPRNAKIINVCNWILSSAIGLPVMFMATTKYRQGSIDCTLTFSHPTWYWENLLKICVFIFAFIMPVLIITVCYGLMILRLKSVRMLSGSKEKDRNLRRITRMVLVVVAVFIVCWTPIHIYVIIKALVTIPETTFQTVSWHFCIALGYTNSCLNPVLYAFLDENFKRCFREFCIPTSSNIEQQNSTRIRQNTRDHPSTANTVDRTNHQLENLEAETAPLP
structure (smiles),measurement,setting,value
C[C@@H](NC(=O)[C@@H](N)Cc1ccc(O)cc1)C(=O)NCC(=O)N(C)[C@@H](Cc1ccccc1)C(=O)NCCO [DAMGO],superactivation of the cAMP pathway relative to untreated cells,cAMP pathway; 10 nM alone,little superactivation
same,superactivation of the cAMP pathway relative to untreated cells,"cAMP pathway; 1 μM, 100 nM, 10 nM or 1 nM",superactivation in a dose dependent manner
same,MOR endocytosis,wild type MOR,promotes robust endocytosis of the MOR
same,"withdrawal symptoms after naloxone (jumping, shaking, chewing, weight loss)",[1],"no jumping and less shaking, chewing, and weight loss"
same,MOR endocytosis in lamina II neurons,"[2]; acute IT, 0.01 nmoles alone",nor detectable MOR endocytosis
same,MOR distribution / endocytosis in lamina II neurons,"[2]; acute IT, DAMGO 0.3 nmoles, equi-analgesic morphine 30 nmoles",pronounced receptor endocytosis
same,distribution of MORs in spinal cord neurons,"[2]; day 7 of chronic IT treatment, morphine mini pump and/or DAMGO 0.01 nmoles twice daily",indistinguishable from animals given only saline
same,analgesia (tail flick latency),"[3]; 0.01 nmoles IT twice daily, saline from mini pump, 7 days",produced no analgesia
same,analgesia (tail flick latency),"[3]; acute IT injection, 30 min after, 0.01 nmoles, p>0.05",no analgesic effect
same,analgesia (tail flick latency),[3]; [7],produced significant analgesia
same,reduction in antinociception (percent MPE) after 5-day treatment,"[4]; i.c.v. 1 nmole twice a day for 5 days, day 5 vs day 1",much smaller reduction in antinociception
same,B2AR endocytosis,[5],not B2AR
same,MOR endocytosis,[6]; [8],promoted endocytosis of the MOR
same,MOR endocytosis,"[6]; HEK 293 cells expressing only MOR, 5 μM, 30 minutes (saturating dose)",robust endocytosis of receptor
same,MOR endocytosis,"[6]; HEK 293 cells expressing only MOR, non-saturating DAMGO 100 nM alone",significantly less receptor endocytosis
same,MOR-G protein coupling in the brainstem and thalamus,MOR-G protein coupling,reduction MOR-G protein coupling
same,"promotes substantial MOR endocytosis in brain (striatum, globus pallidus, ventral tegumental area)",mu-opioid receptor,does
CC(C)NCC(O)c1ccc(O)c(O)c1 (stereo not drawn) [isoproterenol],MOR endocytosis,[6]; [8],not MOR
"CN1CC[C@]23c4c5ccc(O)c4O[C@H]2[C@@H](O)C=C[C@H]3[C@H]1C5 [morphine, (5α,6α)-7,8-didehydro-4,5-epoxy-17-methylmorphinan-3,6-diol]",withdrawal behaviours after naloxone,[1]; i.c.v. 25 nmoles/hr for 7 days,increases in shaking and chewing
same,withdrawal behaviours after naloxone,[1]; i.c.v. 75 nmoles/hr for 7 days,"increases in jumping, shaking, and chewing"
same,weight loss after naloxone,[1]; i.c.v. 25 or 75 nmoles/hr for 7 days,dose-dependent weight loss
same,"withdrawal symptoms after naloxone (jumping, shaking, chewing, weight loss)",[1],"produced jumping, shaking, and chewing and weight loss"
same,time to development of tolerance,"[3]; Y-shaped IT catheter, chronic morphine mini pump plus twice daily saline injections",≤ 4 days
same,antinociception early in the experiment / day one,"[3]; Y-shaped IT catheter, chronic morphine mini pump plus twice daily saline or DAMGO 0.01 nmoles",pronounced antinociception early in the experiment
same,analgesia (tail flick latency),[3]; [7],produced significant analgesia
same,loss of antinociception (tolerance),"[3]; chronic IT infusion at 2, 6, or 18 nmoles/hr, 7 days",eventually lost completely over 7 days
same,antinociceptive effect (tail flick latency),"[3]; chronic IT infusion at 2, 6, or 18 nmoles/hr, early days",significant antinociceptive effect for the first few days
same,duration of significant antinociceptive effect,[4]; [9],3 to 4 days
same,tolerance,[4]; [9],causes tolerance in a dose-dependent manner
same,reduction in antinociceptive effect (percent MPE) after 5-day treatment,"[4]; i.c.v. 50 nmoles twice a day for 5 days, day 5 vs day 1",30-40%
